Reference: patent US11427558B1, “Indazoles and azaindazoles as LRRK2 inhibitors” (ESCAPE Bio, Inc., priority 2019, dated 2022)
pIC50: −log10 of the molar value.

What was measured:
[1] = target: Recombinant wild type LRRK2 protein (Homo sapiens (Human), UniProt Q5S007); assay: LRRK2 kinase activity, LanthaScreen TR-FRET assay (wild type); type: biochemical; conditions: LRRKtide 400 nM, 25 μM ATP, 60 min; read-out: LRRK2 WT IC50
Outline: (§1)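 Recombinant human wild-type or G2019S LRRK2 phosphorylated fluorescein-labelled LRRKtide (ERM-based) with ATP and serially diluted compound for 60 min at room temperature.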

[2] = target: Recombinant G2019S-LRRK2 protein (Homo sapiens (Human), UniProt Q5S007, G2019S); assay: LRRK2 kinase activity, LanthaScreen TR-FRET assay (G2019S); type: biochemical; conditions: LRRKtide 400 nM, 25 μM ATP, 60 min
Sequence of Recombinant G2019S-LRRK2 protein (Q5S007 whole entry G2019S): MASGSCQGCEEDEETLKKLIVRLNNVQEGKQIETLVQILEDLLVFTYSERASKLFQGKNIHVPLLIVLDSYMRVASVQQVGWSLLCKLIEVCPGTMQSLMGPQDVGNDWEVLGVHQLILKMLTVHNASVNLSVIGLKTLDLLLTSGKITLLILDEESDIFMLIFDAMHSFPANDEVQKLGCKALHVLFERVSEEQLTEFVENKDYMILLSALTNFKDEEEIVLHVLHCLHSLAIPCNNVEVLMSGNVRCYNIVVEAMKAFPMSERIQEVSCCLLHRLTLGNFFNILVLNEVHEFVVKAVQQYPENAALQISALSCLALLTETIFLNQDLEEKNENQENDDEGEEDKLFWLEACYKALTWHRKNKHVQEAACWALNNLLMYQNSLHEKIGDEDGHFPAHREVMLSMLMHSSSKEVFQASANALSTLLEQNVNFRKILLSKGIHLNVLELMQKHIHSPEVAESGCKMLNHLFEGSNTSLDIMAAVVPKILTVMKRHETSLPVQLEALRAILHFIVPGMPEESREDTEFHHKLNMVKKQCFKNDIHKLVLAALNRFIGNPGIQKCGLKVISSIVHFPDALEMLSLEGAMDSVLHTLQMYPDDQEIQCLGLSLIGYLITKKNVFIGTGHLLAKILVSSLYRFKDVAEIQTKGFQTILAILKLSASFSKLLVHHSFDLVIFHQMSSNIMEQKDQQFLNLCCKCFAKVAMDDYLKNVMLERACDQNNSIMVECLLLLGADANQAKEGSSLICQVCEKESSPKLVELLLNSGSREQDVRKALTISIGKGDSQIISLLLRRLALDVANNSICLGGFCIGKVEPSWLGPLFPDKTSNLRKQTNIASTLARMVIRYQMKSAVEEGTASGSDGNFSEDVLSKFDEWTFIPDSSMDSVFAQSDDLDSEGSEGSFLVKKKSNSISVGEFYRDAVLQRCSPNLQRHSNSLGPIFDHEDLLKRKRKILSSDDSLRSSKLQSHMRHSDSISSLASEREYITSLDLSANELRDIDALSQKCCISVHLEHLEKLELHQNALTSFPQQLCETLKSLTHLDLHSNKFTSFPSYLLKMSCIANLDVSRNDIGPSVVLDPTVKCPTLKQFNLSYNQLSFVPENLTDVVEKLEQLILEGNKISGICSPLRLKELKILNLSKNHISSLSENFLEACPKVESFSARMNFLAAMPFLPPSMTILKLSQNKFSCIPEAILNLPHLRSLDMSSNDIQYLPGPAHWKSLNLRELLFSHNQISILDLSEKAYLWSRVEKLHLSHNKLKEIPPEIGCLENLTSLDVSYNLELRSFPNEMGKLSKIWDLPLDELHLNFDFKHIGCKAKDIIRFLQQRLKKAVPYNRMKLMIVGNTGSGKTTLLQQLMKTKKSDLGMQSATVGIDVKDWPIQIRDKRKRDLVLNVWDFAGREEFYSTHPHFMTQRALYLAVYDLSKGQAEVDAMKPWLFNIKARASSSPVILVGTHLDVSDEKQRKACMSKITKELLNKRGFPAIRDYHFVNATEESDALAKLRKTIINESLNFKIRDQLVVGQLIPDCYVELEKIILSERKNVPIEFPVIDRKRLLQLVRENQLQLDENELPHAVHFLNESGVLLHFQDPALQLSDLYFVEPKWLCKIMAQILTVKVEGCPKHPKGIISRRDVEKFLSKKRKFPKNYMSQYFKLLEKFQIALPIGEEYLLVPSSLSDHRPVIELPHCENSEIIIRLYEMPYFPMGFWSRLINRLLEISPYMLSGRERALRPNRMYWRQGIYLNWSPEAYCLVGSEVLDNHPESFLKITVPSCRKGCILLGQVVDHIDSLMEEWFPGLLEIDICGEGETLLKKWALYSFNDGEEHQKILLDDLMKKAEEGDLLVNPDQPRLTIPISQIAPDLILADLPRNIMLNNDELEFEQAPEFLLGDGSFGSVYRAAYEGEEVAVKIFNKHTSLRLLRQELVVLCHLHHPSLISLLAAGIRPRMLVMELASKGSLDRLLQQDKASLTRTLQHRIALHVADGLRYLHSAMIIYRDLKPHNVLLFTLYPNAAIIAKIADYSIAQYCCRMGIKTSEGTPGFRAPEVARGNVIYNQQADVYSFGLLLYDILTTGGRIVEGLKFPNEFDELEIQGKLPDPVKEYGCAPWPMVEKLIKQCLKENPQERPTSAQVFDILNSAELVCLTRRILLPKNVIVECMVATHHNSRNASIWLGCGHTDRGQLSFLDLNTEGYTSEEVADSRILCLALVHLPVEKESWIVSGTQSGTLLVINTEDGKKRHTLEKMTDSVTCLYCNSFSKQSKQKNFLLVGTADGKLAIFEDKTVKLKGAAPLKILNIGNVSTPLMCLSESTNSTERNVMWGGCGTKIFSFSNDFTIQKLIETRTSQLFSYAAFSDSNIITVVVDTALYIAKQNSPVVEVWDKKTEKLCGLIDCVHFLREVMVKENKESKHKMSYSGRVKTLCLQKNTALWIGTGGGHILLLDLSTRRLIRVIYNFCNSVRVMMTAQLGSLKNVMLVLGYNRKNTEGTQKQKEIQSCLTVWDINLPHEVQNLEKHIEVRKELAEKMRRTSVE
Outline: as §1

Sequence of Recombinant wild type LRRK2 protein (Q5S007 whole entry): as the sequence (Q5S007 whole entry G2019S) above, with S2019G counted along it

| SMILES | pIC50 [1] | pIC50 [2] |
| --- | --- | --- |
| Cc1c(Cl)c(C(=O)Nc2ccc3[nH]nc(C4CC4)c3c2)nc(Cl)c1C#N [Example 331, 3,6-Dichloro-5-cyano-N-(3-cyclopropyl-1H-indazol-5-yl)-4-methylpicolinamide] | > 7.00 | > 7.00 |
| Cc1c(C#N)ccc(F)c1C(=O)Nc1ccc2[nH]nc(-c3ccoc3)c2c1 [Example 134, 3-Cyano-6-fluoro-N-(3-(furan-3-yl)-1H-indazol-5-yl)-2-methylbenzamide] | > 7.00 | > 7.00 |
| N#Cc1ccc(C(=O)Nc2ccc3[nH]nc(-c4ccoc4)c3c2)c(Cl)c1 [Example 5, 2-Chloro-4-cyano-N-(3-(furan-3-yl)-1H-indazol-5-yl)benzamide] | > 7.00 | > 7.00 |
| Cc1ccc(C#N)nc1C(=O)Nc1ccc2[nH]nc(-c3ccoc3)c2c1 [Example 148, 6-Cyano-N-(3-(furan-3-yl)-1H-indazol-5-yl)-3-methylpicolinamide] | > 7.00 | > 7.00 |
| Cc1cc(C#N)cnc1C(=O)Nc1ccc2[nH]nc(-c3cnn(C4CCOCC4)c3)c2c1 [Example 33, 5-cyano-3-methyl-N-(3-(1-(tetrahydro-2H-pyran-4-yl)-1H-pyrazol-4-yl)-1H-indazol-5-yl)picolinamide] | > 7.00 | > 7.00 |
| C=C(C)c1cc(C#N)cnc1C(=O)Nc1ccc2[nH]nc(C)c2c1 [Example 313, 5-Cyano-N-(3-methyl-1H-indazol-5-yl)-3-(prop-1-en-2-yl)picolinamide] | 5.00 to 6.00 | 6.00 to 7.00 |
| N#Cc1ccc(C(=O)Nc2ccc3[nH]nc(-c4ccoc4)c3c2)nc1 [Example 16, 5-Cyano-N-(3-(furan-3-yl)-1H-indazol-5-yl)picolinamide] | 6.00 to 7.00 | > 7.00 |
| Cc1c(C(=O)Nc2ccc3[nH]nc(C4CC4)c3c2)nc(C2CC2)c(C#N)c1C [Example 334, 5-Cyano-6-cyclopropyl-N-(3-cyclopropyl-1H-indazol-5-yl)-3,4-dimethylpicolinamide] | 6.00 to 7.00 | > 7.00 |
| Cc1c(C(=O)Nc2ccc3[nH]nc(C4CC4)c3c2)nc(Cl)c(C#N)c1C [Example 303, 6-Chloro-5-cyano-N-(3-cyclopropyl-1H-indazol-5-yl)-3,4-dimethylpicolinamide] | > 7.00 | > 7.00 |
| Cc1c(C#N)cnc(C(=O)Nc2cc(F)c3[nH]ncc3c2)c1C [Example 314, 5-Cyano-N-(7-fluoro-1H-indazol-5-yl)-3,4-dimethylpicolinamide] | 5.00 to 6.00 | 6.00 to 7.00 |
| Cc1cc(-c2n[nH]c3ccc(NC(=O)c4ncc(C#N)cc4C)cc23)cnn1 [Example 273, 5-Cyano-3-methyl-N-(3-(6-methylpyridazin-4-yl)-1H-indazol-5-yl)picolinamide] | 6.00 to 7.00 | > 7.00 |
| Cc1cc(C#N)cnc1C(=O)Nc1ccc2[nH]nc(-c3coc(C#N)c3)c2c1 [Example 76, 5-Cyano-N-(3-(5-cyanofuran-3-yl)-1H-indazol-5-yl)-3-methylpicolinamide] | > 7.00 | > 7.00 |
| COc1cc(C(=O)Nc2ccc3[nH]nc(-c4cnco4)c3c2)ncc1C#N [Example 249, 5-Cyano-4-methoxy-N-(3-(oxazol-5-yl)-1H-indazol-5-yl)picolinamide] | 6.00 to 7.00 | > 7.00 |
| Cc1c(C(=O)Nc2ccc3[nH]nc(C4CC4)c3c2)ncc(C#N)c1C(F)(F)F [Example 286, 5-Cyano-N-(3-cyclopropyl-1H-indazol-5-yl)-3-methyl-4-(trifluoromethyl)picolinamide] | 5.00 to 6.00 | > 7.00 |
| Cc1oc(C#N)cc1C(=O)Nc1ccc2[nH]nc(-c3ccccc3)c2c1 [Example 27, 5-Cyano-2-methyl-N-(3-phenyl-1H-indazol-5-yl)furan-3-carboxamide] | 6.00 to 7.00 | > 7.00 |
| Cc1c(C(=O)Nc2ccc3[nH]nc(C(F)F)c3c2)nc(Cl)c(C#N)c1C [Example 291, 6-Chloro-5-cyano-N-(3-(difluoromethyl)-1H-indazol-5-yl)-3,4-dimethylpicolinamide] | > 7.00 | > 7.00 |
| Cc1ccc(C#N)c(F)c1C(=O)Nc1ccc2[nH]nc(-c3cnco3)c2c1 [Example 203, 3-Cyano-2-fluoro-6-methyl-N-(3-(oxazol-5-yl)-1H-indazol-5-yl)benzamide] | > 7.00 | > 7.00 |
| Cc1cc(C#N)cnc1C(=O)Nc1ccc2[nH]nc(-c3ccc(C#N)s3)c2c1 [Example 131, 5-Cyano-N-(3-(5-cyanothiophen-2-yl)-1H-indazol-5-yl)-3-methylpicolinamide] | 6.00 to 7.00 | > 7.00 |
| Cc1cc(C#N)cnc1C(=O)Nc1ccc2[nH]nc(-c3cccc(S(C)(=O)=O)c3)c2c1 [Example 34, 5-Cyano-3-methyl-N-(3-(3-(methylsulfonyl)phenyl)-1H-indazol-5-yl)picolinamide] | > 7.00 | > 7.00 |

| SMILES | pIC50 [1] | pIC50 [2] |
| --- | --- | --- |
| Cc1ccc(C#N)c(C)c1C(=O)Nc1ccc2[nH]nc(-c3cnn(C(F)F)c3)c2c1 [Example 193, 3-Cyano-N-(3-(1-(difluoromethyl)-1H-pyrazol-4-yl)-1H-indazol-5-yl)-2,6-dimethylbenzamide] | > 7.00 | > 7.00 |
| Cc1cc(C#N)cnc1C(=O)Nc1ccc2[nH]nc(-c3ccc(OC(C)C)nc3)c2c1 [Example 38, 5-Cyano-N-(3-(6-isopropoxypyridin-3-yl)-1H-indazol-5-yl)-3-methylpicolinamide] | 6.00 to 7.00 | > 7.00 |
| Cc1c(C(=O)Nc2ccc3[nH]nc(-c4ccoc4)c3c2)n[nH]c1C#N [Example 133, 5-Cyano-N-(3-(furan-3-yl)-1H-indazol-5-yl)-4-methyl-1H-pyrazole-3-carboxamide] | 6.00 to 7.00 | > 7.00 |
| Cc1ccc(-c2n[nH]c3ccc(NC(=O)c4ncc(C#N)cc4C)cc23)cn1 [Example 55, 5-Cyano-3-methyl-N-(3-(6-methylpyridin-3-yl)-1H-indazol-5-yl)picolinamide] | 6.00 to 7.00 | > 7.00 |
| N#Cc1cnc(C(=O)Nc2ccc3[nH]nc(-c4cnoc4)c3c2)c(C2CC2)c1 [Example 310, 5-Cyano-3-cyclopropyl-N-(3-(isoxazol-4-yl)-1H-indazol-5-yl)picolinamide] | 6.00 to 7.00 | > 7.00 |
| Cc1c(C#N)cnc(C(=O)Nc2ccc3[nH]nc(/C=C4/CCOC4)c3c2)c1C [Example 261, (Z)-5-Cyano-N-(3-((dihydrofuran-3(2H)-ylidene)methyl)-1H-indazol-5-yl)-3,4-dimethylpicolinamide] | 5.00 to 6.00 | > 7.00 |
| Cc1nccc(-c2n[nH]c3ccc(NC(=O)c4ncc(C#N)c(C)c4C)cc23)n1 [Example 237, 5-Cyano-3,4-dimethyl-N-(3-(2-methylpyrimidin-4-yl)-1H-indazol-5-yl)picolinamide] | > 7.00 | > 7.00 |
| Cc1cc(C#N)cnc1C(=O)Nc1ccc2[nH]nc(-n3ccnc3)c2c1 [Example 126, N-(3-(1H-Imidazol-1-yl)-1H-indazol-5-yl)-5-cyano-3-methylpicolinamide] | 6.00 to 7.00 | > 7.00 |
| Cc1cc(C#N)cnc1C(=O)Nc1ccc2[nH]nc(-c3ccc(Cl)s3)c2c1 [Example 139, N-(3-(5-Chlorothiophen-2-yl)-1H-indazol-5-yl)-5-cyano-3-methylpicolinamide] | 5.00 to 6.00 | > 7.00 |
| CCOc1cc(-c2n[nH]c3ccc(NC(=O)c4ncc(C#N)c(C)c4C)cc23)ccn1 [Example 205, 5-Cyano-N-(3-(2-ethoxypyridin-4-yl)-1H-indazol-5-yl)-3,4-dimethylpicolinamide] | > 7.00 | > 7.00 |
| N#Cc1ccc(C(=O)Nc2ccc3[nH]nc(-c4ccoc4)c3c2)c(C(F)(F)F)c1 [Example 6, 4-Cyano-N-(3-(furan-3-yl)-1H-indazol-5-yl)-2-(trifluoromethyl)benzamide] | > 7.00 | > 7.00 |
| N#Cc1cnc(C(=O)Nc2ccc3[nH]nc(-c4ccoc4)c3c2)cc1Cl [Example 66, 4-Chloro-5-cyano-N-(3-(furan-3-yl)-1H-indazol-5-yl)picolinamide] | 6.00 to 7.00 | 6.00 to 7.00 |
| Cc1cc(C#N)cnc1C(=O)Nc1ccc2[nH]nc(-c3cnn(C)c3)c2c1 [Example 57, 5-Cyano-3-methyl-N-(3-(1-methyl-1H-pyrazol-4-yl)-1H-indazol-5-yl)picolinamide] | > 7.00 | > 7.00 |
| N#Cc1cccc(C(=O)Nc2ccc3[nH]nc(-c4cnn(C(F)F)c4)c3c2)c1C(F)(F)F [Example 192, 3-Cyano-N-(3-(1-(difluoromethyl)-1H-pyrazol-4-yl)-1H-indazol-5-yl)-2-(trifluoromethyl)benzamide] | > 7.00 | > 7.00 |
| Cc1cc(C#N)cnc1C(=O)Nc1ccc2[nH]nc(-c3cccnc3)c2c1 [Example 50, 5-Cyano-3-methyl-N-(3-(pyridin-3-yl)-1H-indazol-5-yl)picolinamide] | 6.00 to 7.00 | > 7.00 |
| Cc1c(C#N)cnc(C(=O)Nc2ccc3[nH]nc(C4(C)CC4)c3c2)c1C [Example 268, 5-Cyano-3,4-dimethyl-N-(3-(1-methylcyclopropyl)-1H-indazol-5-yl)picolinamide] | 5.00 to 6.00 | 6.00 to 7.00 |
| N#Cc1ccc(C(=O)Nc2ccc3[nH]nc(-c4ccoc4)c3c2)c(I)c1 [Example 4, 4-Cyano-N-(3-(furan-3-yl)-1H-indazol-5-yl)-2-iodobenzamide] | > 7.00 | > 7.00 |
| Cc1cc(C#N)cnc1C(=O)Nc1ccc2[nH]nc(-c3ccc(C(F)(F)F)nc3)c2c1 [Example 60, 5-Cyano-3-methyl-N-(3-(6-(trifluoromethyl)pyridin-3-yl)-1H-indazol-5-yl)picolinamide] | 5.00 to 6.00 | 6.00 to 7.00 |
| Cn1cc(C#N)nc1C(=O)Nc1ccc2[nH]nc(-c3ccoc3)c2c1 [Example 124, 4-Cyano-N-(3-(furan-3-yl)-1H-indazol-5-yl)-1-methyl-1H-imidazole-2-carboxamide] | > 7.00 | > 7.00 |
